In assay [1] the test system is non-malignant mouse pituitary adenoma. Conditions: cited from earlier work.
A further assay relates to Rana pipiens tadpoles. Conditions: tadpole metamorphosis; cited from earlier work.
The next assay deals with thyroid iodine uptake. Conditions: rats; as compared to thyroxine; cited from earlier work.
A further assay deals with human cancer cells. The conditions noted are these: cited from earlier work.
The subject of another assay is cancer cells. The assay can be described thus: Blocking of mitosis in cancer cells. The class given is cell-based.
Assay [2] relates to biosynthetic pathways of DNA, RNA or proteins. Conditions: cited from earlier work.
For a further assay, the system named is malignant tumors. The conditions noted are these: cited from earlier work.
A further assay deals with mammary cancer cells. As to the kind of experiment: Colony formation by mammary cancer cells (FIG. 1). The class given is cell-based, human. The conditions noted are these: DIME vs DIPE. An excerpt: FIG. 1 is a graph illustrating the cell killing effects of DIME and DIPE on mammary cancer colonies;
The effect of DIME and DIPE on colony formation by mammary cancer cells is illustrated in FIG. 1, where the results are superimposable, confirming that cytocidal action of DIME and DIPE are indistinguishable.

Entries after “also recorded” stand apart in the source; their conditions may differ.

Regarding `COC(=O)c1cc(I)c(Oc2ccc(OC)cc2)c(I)c1` [DIME, methyl 3,5-diiodo-4-(4'-methoxyphenoxy)benzoate], the “inhibition of growth of non-malignant pituitary tumor” value in assay [1] is “no inhibitory activity”. Besides, the “cell differentiating / metamorphogenic activity” value in the assay on Rana pipiens tadpoles is recorded as “no significant metabolic or metamorphogenic action; also recorded: no significant metabolic or cell differentiating activity”. The “inhibition of uptake of iodine into the thyroid” value in the assay on thyroid iodine uptake was 15%. Also, the “cytostatic / cytocidal activity” value in the assay on human cancer cells (cellular assays and in vivo) is “highly active both in cellular assays and in vivo”. Moreover, in the assay on human cancer cells, the “growth inhibition of malignant cell types” value is listed as “inhibit the growth of a variety of malignant cell types”; the tumor cell apoptosis entry is given as “induce tumor cell apoptosis preceded by micronucleation”; the “tumoricidal activity in cell cultures” value is “potential tumoricidal agent both in cell cultures and in vivo”. Moreover, the “blocking of mitosis in cancer cells” value with cancer cells was “capable of blocking mitosis in cancer cells”. Moreover, the “inhibition of biosynthetic pathways of DNA, RNA or proteins” value in assay [2] is on record as “nor does it inhibit the biosynthetic pathways of DNA, RNA or proteins”. Besides, the “anti-tumor activity in vivo” value in the assay with malignant tumors is “potential tumoricidal agent both in cell cultures and in vivo; also recorded: highly active both in cellular assays and in vivo”. Moreover, the “effect on colony formation (FIG. 1)” value with mammary cancer cells was “superimposable”.

The record behind these values is patent US5922775A, “Method of treating malignant tumors with ketone thyroxine analogues having no significant hormonal activity” (priority 1997, dated 1999).
